Reference: PubChem BioAssay AID248 (DTP/NCI, 2004)
Inconclusive results and toxic doses are left out. Cut-off read from the data, not from the text of the source: active = T/C of 150% or more; inactive = T/C below 125%.

Test system: L1210 leukemia ip in BDF1 mice, survival T/C
Test: NCI In Vivo Anticancer Drug Screen. Data for tumor model L1210 Leukemia (intraperitoneal) in B6D2F1 (BDF1) mice
Settings: endpoint: mean survival time, higher = longer survival
Method in brief: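 Tumor was transplanted into mice, which were then dosed with test compound or vehicle alone. Survival was recorded for each group, and the treated figure was expressed relative to the control figure.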

[1] = dose: 100.0 mg/kg/injection, schedule: Q01DX001 (ip), vehicle: saline
[2] = dose: 200.0 mg/kg/injection, schedule: Q01DX001 (ip), vehicle: saline
[3] = dose: 400.0 mg/kg/injection, schedule: Q01DX001 (ip), vehicle: saline
[4] = dose: 100.0 mg/kg/injection, schedule: Q04DX002 (ip), vehicle: saline with Tween-80
[5] = dose: 200.0 mg/kg/injection, schedule: Q04DX002 (ip), vehicle: saline with Tween-80
[6] = dose: 100.0 mg/kg/injection, schedule: Q04DX003 (ip), vehicle: other
[7] = dose: 100.0 mg/kg/injection, schedule: Q04DX003 (ip), vehicle: Klucel (hydroxypropylcellulose) (HPC)
[8] = dose: 100.0 mg/kg/injection, schedule: Q04DX003 (ip), vehicle: saline with Tween-80
[9] = dose: 200.0 mg/kg/injection, schedule: Q04DX003 (ip), vehicle: Klucel (hydroxypropylcellulose) (HPC)
[10] = dose: 200.0 mg/kg/injection, schedule: Q04DX003 (ip), vehicle: saline with Tween-80
[11] = dose: 400.0 mg/kg/injection, schedule: Q04DX003 (ip), vehicle: Klucel (hydroxypropylcellulose) (HPC)
[12] = dose: 400.0 mg/kg/injection, schedule: Q04DX003 (ip), vehicle: saline with Tween-80
[13] = dose: 100.0 mg/kg/injection, schedule: Q01DX009 (ip), vehicle: Klucel (hydroxypropylcellulose) (HPC)
[14] = dose: 200.0 mg/kg/injection, schedule: Q01DX009 (ip), vehicle: Klucel (hydroxypropylcellulose) (HPC)
[15] = dose: 400.0 mg/kg/injection, schedule: Q01DX009 (ip), vehicle: Klucel (hydroxypropylcellulose) (HPC)

Measured: T/C

C=C(C)C(=O)O[C@H]1CC2=C[C@@H](C[C@@]3(C)O[C@@H]3[C@H]3OC(=O)C(=C)[C@@H]31)OC2=O
inactive: dose: 2.5 mg/kg/injection, schedule: Q01DX009 (ip), vehicle: saline + alcohol 112 % of control | dose: 5.0 mg/kg/injection, schedule: Q01DX009 (ip), vehicle: saline + alcohol 110 % of control | dose: 5.0 mg/kg/injection, schedule: Q01DX Z (ip), vehicle: saline 106 % of control | dose: 10.0 mg/kg/injection, schedule: Q01DX009 (ip), vehicle: carboxymethylcellulose (CMC) 105 % of control | dose: 10.0 mg/kg/injection, schedule: Q01DX009 (ip), vehicle: saline + alcohol 107 % of control | dose: 10.0 mg/kg/injection, schedule: Q01DX Z (ip), vehicle: carboxymethylcellulose (CMC) 97 % of control | dose: 10.0 mg/kg/injection, schedule: Q01DX Z (ip), vehicle: saline 101 % of control | dose: 20.0 mg/kg/injection, schedule: Q01DX009 (ip), vehicle: carboxymethylcellulose (CMC) 93 % of control | dose: 20.0 mg/kg/injection, schedule: Q01DX009 (ip), vehicle: saline + alcohol 105 % of control | dose: 20.0 mg/kg/injection, schedule: Q01DX Z (ip), vehicle: carboxymethylcellulose (CMC) 100 % of control | dose: 40.0 mg/kg/injection, schedule: Q01DX009 (ip), vehicle: carboxymethylcellulose (CMC) 100 % of control | dose: 40.0 mg/kg/injection, schedule: Q01DX009 (ip), vehicle: saline + alcohol 90 % of control | dose: 40.0 mg/kg/injection, schedule: Q01DX Z (ip), vehicle: carboxymethylcellulose (CMC) 103 % of control

CCOC(=O)N1CCN(C(=S)[S-])CC1.CCOC(=O)N1CCN(C(=S)[S-])CC1.[Zn]
inactive: dose: 150.0 mg/kg/injection, schedule: Q01DX001 (ip), vehicle: saline 86 % of control | dose: 300.0 mg/kg/injection, schedule: Q01DX001 (ip), vehicle: saline 87 % of control

Cc1ccc(S(=O)(=O)OC2CCCC3CCCCC32)cc1 (stereo not drawn)
inactive: [1] 98 % of control | [2] 100 % of control | [3] 98 % of control

CCCC=C(CCCC)CCCC
inactive: [4] 87 % of control | [5] 94 % of control

CCNC(=S)OC1CCC2(C)C(=CCC3C2CCC2(C)C(C(C)CCC(CC)C(C)C)CCC32)C1 (stereo not drawn)
inactive: [4] 87 % of control | [5] 87 % of control | dose: 400.0 mg/kg/injection, schedule: Q04DX002 (ip), vehicle: saline with Tween-80 94 % of control

C1CCC2(CC1)CCCC2
inactive: dose: 75.0 mg/kg/injection, schedule: Q01DX001 (ip), vehicle: saline with Tween-80 95 % of control | dose: 150.0 mg/kg/injection, schedule: Q01DX001 (ip), vehicle: saline with Tween-80 92 % of control | dose: 300.0 mg/kg/injection, schedule: Q01DX001 (ip), vehicle: saline with Tween-80 104 % of control

COc1ccc(OC(=O)Nc2ccc(OC)cc2Cl)cc1
inactive: dose: 100.0 mg/kg/injection, schedule: Q04DX002 (ip), vehicle: Klucel (hydroxypropylcellulose) (HPC) 96 % of control | dose: 200.0 mg/kg/injection, schedule: Q04DX002 (ip), vehicle: Klucel (hydroxypropylcellulose) (HPC) 107 % of control | dose: 400.0 mg/kg/injection, schedule: Q04DX002 (ip), vehicle: Klucel (hydroxypropylcellulose) (HPC) 100 % of control

COc1nccnn1
inactive: dose: 100.0 mg/kg/injection, schedule: Q01DX001 (ip), vehicle: saline with Tween-80 93 % of control | dose: 200.0 mg/kg/injection, schedule: Q01DX001 (ip), vehicle: saline with Tween-80 103 % of control | dose: 400.0 mg/kg/injection, schedule: Q01DX001 (ip), vehicle: saline with Tween-80 101 % of control

COc1ccc(Cc2nc3ccc(Cl)cc3[nH]2)cc1
inactive: [6] 101 % of control | dose: 200.0 mg/kg/injection, schedule: Q04DX003 (ip), vehicle: other 98 % of control | dose: 400.0 mg/kg/injection, schedule: Q04DX003 (ip), vehicle: other 98 % of control

COc1cc2c(cc1OC)C(CCN1C(=O)c3ccccc3C1=O)=NCC2
inactive: dose: 25.0 mg/kg/injection, schedule: Q01DX009 (ip), vehicle: saline 97 % of control | dose: 50.0 mg/kg/injection, schedule: Q01DX009 (ip), vehicle: saline 101 % of control | dose: 100.0 mg/kg/injection, schedule: Q04DX003 (ip), vehicle: saline 97 % of control

CCCCNC(C)(C)C(SS)c1ccc(C(F)(F)F)cc1 (stereo not drawn)
inactive: dose: 25.0 mg/kg/injection, schedule: Q01DX009 (ip), vehicle: other 96 % of control | dose: 25.0 mg/kg/injection, schedule: Q04DX003 (ip), vehicle: other 98 % of control | dose: 50.0 mg/kg/injection, schedule: Q01DX009 (ip), vehicle: other 94 % of control | dose: 50.0 mg/kg/injection, schedule: Q04DX003 (ip), vehicle: other 93 % of control | dose: 100.0 mg/kg/injection, schedule: Q01DX009 (ip), vehicle: other 98 % of control | [6] 86 % of control

NC(=O)c1nccnc1C(N)=O
inactive: [7] 101 % of control | [8] 96 % of control | [9] 101 % of control | [10] 96 % of control | [11] 93 % of control | [12] 96 % of control

CN(C)CCn1c2ccccc2c2ccccc21
inactive: [8] 92 % of control | [10] 92 % of control | [12] 95 % of control

CCC(C)NC(=O)Nc1ccccc1Cl (stereo not drawn)
inactive: [13] 101 % of control | [14] 95 % of control | [15] 100 % of control

COc1ccc(OC(C)OCCOCCO)cc1 (stereo not drawn)
inactive: dose: 100.0 mg/kg/injection, schedule: Q04DX002 (ip), vehicle: saline 107 % of control | dose: 200.0 mg/kg/injection, schedule: Q04DX002 (ip), vehicle: saline 93 % of control | dose: 400.0 mg/kg/injection, schedule: Q04DX002 (ip), vehicle: saline 107 % of control

CC(=O)Nc1cccc(OCCCOc2ccc([N+](=O)[O-])cc2)c1
inactive: dose: 100.0 mg/kg/injection, schedule: Q01DX001 (ip), vehicle: carboxymethylcellulose (CMC) 95 % of control | dose: 200.0 mg/kg/injection, schedule: Q01DX001 (ip), vehicle: carboxymethylcellulose (CMC) 101 % of control | dose: 400.0 mg/kg/injection, schedule: Q01DX001 (ip), vehicle: carboxymethylcellulose (CMC) 90 % of control

O=C(O)c1c2ccccc2cc2ccccc12
inactive: [13] 105 % of control | [14] 107 % of control | [15] 104 % of control

CCOC(=O)CN(c1ccccc1-c1ccccc1)S(=O)(=O)c1ccc(C)cc1
inactive: dose: 50.0 mg/kg/injection, schedule: Q01DX001 (ip), vehicle: other 92 % of control | dose: 100.0 mg/kg/injection, schedule: Q01DX001 (ip), vehicle: other 89 % of control | dose: 200.0 mg/kg/injection, schedule: Q01DX001 (ip), vehicle: other 101 % of control | dose: 400.0 mg/kg/injection, schedule: Q01DX001 (ip), vehicle: other 101 % of control

CC12CCC(O)CC1CCC1C2CCC2(C)C(C(=O)CO)CCC12 (stereo not drawn)
inactive: dose: 100.0 mg/kg/injection, schedule: Q01DX001 (sc), vehicle: steriod suspending solution 103 % of control | dose: 200.0 mg/kg/injection, schedule: Q01DX001 (sc), vehicle: steriod suspending solution 103 % of control | dose: 400.0 mg/kg/injection, schedule: Q01DX001 (sc), vehicle: steriod suspending solution 101 % of control

CN(Nc1c([N+](=O)[O-])cc([N+](=O)[O-])cc1[N+](=O)[O-])c1cccc2ccccc12
inactive: dose: 50.0 mg/kg/injection, schedule: Q01DX009 (ip), vehicle: Klucel (hydroxypropylcellulose) (HPC) 106 % of control | [13] 97 % of control | [7] 98 % of control | [14] 97 % of control | [9] 98 % of control | [15] 102 % of control | [11] 90 % of control

Cc1ccc(S(=O)(=O)Nc2ccccc2)c(CC(O)(c2ccccc2)c2ccccc2)c1
inactive: dose: 50.0 mg/kg/injection, schedule: Q01DX009 (ip), vehicle: saline with Tween-80 93 % of control | dose: 100.0 mg/kg/injection, schedule: Q01DX009 (ip), vehicle: saline with Tween-80 86 % of control | dose: 200.0 mg/kg/injection, schedule: Q01DX009 (ip), vehicle: saline with Tween-80 93 % of control

COc1cc(C)c(O)c(C)c1C
inactive: [8] 95 % of control | [10] 95 % of control | [12] 95 % of control

BrCC12CCC1(CBr)COC2 (stereo not drawn)
inactive: [1] 99 % of control | [2] 103 % of control | [3] 101 % of control
